From PubChem BioAssay (NCI)
Several values for one entry are separate records, joined by “and”; a condition that tells them apart may be missing. Equal values may be shown once.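 Five concentrations, 48 hours, 96-well plates. The concentration for 50% growth inhibition is given as GI50. The concentration for full growth arrest is given as TGI.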

How the values were obtained:
Test in all cases: NCI-60 cell line screen, 48 h
786-0 renal = system: 786-0 renal
HL-60(TB) leukemia = system: HL-60(TB) leukemia
MCF7 breast = system: MCF7 breast
MOLT-4 leukemia = system: MOLT-4 leukemia
NCI/ADR-RES ovarian = system: NCI/ADR-RES ovarian
SF-295 CNS = system: SF-295 CNS
SN12C renal = system: SN12C renal
SW-620 colon = system: SW-620 colon
BT-549 breast = system: BT-549 breast
NCI-H460 lung = system: NCI-H460 lung

## O=C1CC(c2cccc(Cl)c2)n2cccc21 (stereo unspecified)
786-0 renal
  TGI: > 100 µM
HL-60(TB) leukemia
  TGI: 92.7 µM
MCF7 breast
  TGI: > 100 µM
MOLT-4 leukemia
  TGI: > 100 µM
NCI/ADR-RES ovarian
  TGI: > 100 µM
SF-295 CNS
  TGI: > 100 µM
SN12C renal
  TGI: > 100 µM
SW-620 colon
  TGI: > 100 µM

## Cc1ccc2c3c1O[C@H]1c4nc5ccccc5cc4C[C@@]4(O)[C@@H](C2)N(CC2CC2)CC[C@]314
786-0 renal
  TGI: 22.7 µM
BT-549 breast
  TGI: 25.5 µM
HL-60(TB) leukemia
  TGI: 26.1 µM
MCF7 breast
  TGI: 22.3 µM
MOLT-4 leukemia
  TGI: 15.5 µM
NCI-H460 lung
  TGI: 35.8 µM
NCI/ADR-RES ovarian
  TGI: 23.5 µM
SF-295 CNS
  TGI: 20.8 µM
SN12C renal
  TGI: > 100 µM
SW-620 colon
  TGI: 18.3 µM

## CN(C)c1ccc(/C=C2\N=C(c3ccccc3)N(c3nc4c(Cl)cc(Cl)cc4s3)C2=O)cc1
786-0 renal
  TGI: > 100 µM
BT-549 breast
  TGI: > 100 µM
HL-60(TB) leukemia
  TGI: > 100 µM
MCF7 breast
  TGI: > 100 µM
MOLT-4 leukemia
  TGI: > 100 µM
NCI-H460 lung
  TGI: > 100 µM
NCI/ADR-RES ovarian
  TGI: > 100 µM
SF-295 CNS
  TGI: > 100 µM
SN12C renal
  TGI: > 100 µM
SW-620 colon
  TGI: > 100 µM

## CSc1n[n+](C)cc(N)c1N
786-0 renal
  TGI: > 100 µM
BT-549 breast
  TGI: > 100 µM
HL-60(TB) leukemia
  TGI: > 100 µM
MCF7 breast
  TGI: > 100 µM
MOLT-4 leukemia
  TGI: > 100 µM
NCI/ADR-RES ovarian
  TGI: > 100 µM
SF-295 CNS
  TGI: > 100 µM
SN12C renal
  TGI: > 100 µM
SW-620 colon
  TGI: > 100 µM

## COc1cccc(-c2cc(=O)c3cc(C)cnc3[nH]2)c1
786-0 renal
  TGI: > 25.3 µM
BT-549 breast
  TGI: > 100 µM
HL-60(TB) leukemia
  TGI: 0.617 µM
MCF7 breast
  TGI: > 100 µM
MOLT-4 leukemia
  TGI: > 32.4 µM
NCI-H460 lung
  TGI: > 100 µM
NCI/ADR-RES ovarian
  TGI: > 100 µM
SF-295 CNS
  TGI: > 100 µM
SN12C renal
  TGI: > 33.9 µM
SW-620 colon
  TGI: > 100 µM

## CCn1c2c(c3c(C(=O)OC)c(O)ccc31)C(=O)c1ccccc1C2=O
786-0 renal
  TGI: 25.4 µM
BT-549 breast
  TGI: 39.5 µM
HL-60(TB) leukemia
  TGI: 57.3 µM
MCF7 breast
  TGI: 70.8 µM
MOLT-4 leukemia
  TGI: 61.5 µM
NCI-H460 lung
  TGI: 27.9 µM
NCI/ADR-RES ovarian
  TGI: 66 µM
SF-295 CNS
  TGI: 47.1 µM
SN12C renal
  TGI: 29.4 µM
SW-620 colon
  TGI: 33.8 µM

## COC1C(O)=C2C(=O)OC(C)(O)/C=C/C=C\C=C/C=C/C(c3ccccc3)NC(=O)/C=C/C=C/C=C/C=C/C2(C)C1O (stereo unspecified)
786-0 renal
  TGI: 0.0234 µM and 0.0419 µM
BT-549 breast
  TGI: 0.168 µM
HL-60(TB) leukemia
  GI50: 0.113 µM
MCF7 breast
  TGI: 0.0273 µM and 0.169 µM
MOLT-4 leukemia
  GI50: 0.0697 µM
NCI-H460 lung
  TGI: 0.0149 µM and 0.131 µM
NCI/ADR-RES ovarian
  GI50: 0.0142 µM
  TGI: 0.0535 µM and 0.206 µM
SF-295 CNS
  GI50: 0.0296 µM
  TGI: 0.0747 µM and 0.206 µM
SN12C renal
  TGI: 0.0649 µM and 0.0906 µM
SW-620 colon
  TGI: 0.0498 µM

## O=C(CSc1nc2ccc(I)cc2c(=O)n1Cc1ccccc1)Nc1ccc(Br)cc1
786-0 renal
  TGI: > 100 µM
BT-549 breast
  TGI: > 100 µM
HL-60(TB) leukemia
  TGI: > 100 µM
MCF7 breast
  TGI: > 100 µM
MOLT-4 leukemia
  TGI: > 100 µM
NCI/ADR-RES ovarian
  TGI: > 100 µM
SF-295 CNS
  TGI: > 100 µM
SN12C renal
  TGI: > 100 µM
SW-620 colon
  TGI: > 100 µM

## CCCCCCCCOCC1S(=O)(=O)OCCOS1(=O)=O
786-0 renal
  TGI: > 100 µM
HL-60(TB) leukemia
  TGI: > 100 µM
MOLT-4 leukemia
  TGI: > 100 µM
NCI-H460 lung
  TGI: > 100 µM
NCI/ADR-RES ovarian
  TGI: > 100 µM
SF-295 CNS
  TGI: > 100 µM
SN12C renal
  TGI: > 100 µM
SW-620 colon
  TGI: > 100 µM

## CN(C)Cc1cc(C(=O)O)cc(CN(C)C)c1O
786-0 renal
  TGI: > 100 µM
BT-549 breast
  TGI: > 100 µM
HL-60(TB) leukemia
  TGI: > 100 µM
MCF7 breast
  TGI: > 100 µM
NCI-H460 lung
  TGI: > 100 µM
NCI/ADR-RES ovarian
  TGI: > 100 µM
SF-295 CNS
  TGI: > 100 µM
SN12C renal
  TGI: > 100 µM
SW-620 colon
  TGI: > 100 µM

## CC(C)n1c(=O)c2nn3c(=O)n(C(C)C)c(=O)c3nn2c1=O
786-0 renal
  TGI: > 100 µM
HL-60(TB) leukemia
  TGI: > 100 µM
MCF7 breast
  TGI: > 100 µM
MOLT-4 leukemia
  TGI: > 100 µM
NCI-H460 lung
  TGI: > 100 µM
NCI/ADR-RES ovarian
  TGI: > 100 µM
SF-295 CNS
  TGI: > 100 µM
SN12C renal
  TGI: > 100 µM
SW-620 colon
  TGI: > 100 µM

## O=C(O)C(Cc1cccs1)C(=O)O
786-0 renal
  TGI: > 100 µM
BT-549 breast
  TGI: > 100 µM
HL-60(TB) leukemia
  TGI: > 100 µM
MCF7 breast
  TGI: > 100 µM
NCI-H460 lung
  TGI: > 100 µM
NCI/ADR-RES ovarian
  TGI: > 100 µM
SN12C renal
  TGI: > 100 µM
SW-620 colon
  TGI: > 100 µM

## OC1CN=C2c3ccccc3C(O)(c3ccc(Cl)cc3)N2C1 (stereo unspecified)
786-0 renal
  TGI: > 100 µM
HL-60(TB) leukemia
  TGI: > 100 µM
MCF7 breast
  TGI: > 100 µM
MOLT-4 leukemia
  TGI: > 100 µM
NCI-H460 lung
  TGI: > 100 µM
NCI/ADR-RES ovarian
  TGI: > 100 µM
SN12C renal
  TGI: > 100 µM
SW-620 colon
  TGI: > 100 µM

## NCCCCCCNc1cc(-c2cccc(OC(F)(F)F)c2)nc2ccc(N3CCCC3)cc12
HL-60(TB) leukemia
  GI50: 2.01 µM
  TGI: 4 µM
MOLT-4 leukemia
  GI50: 1.6 µM
  TGI: 3.59 µM
SF-295 CNS
  GI50: 1.75 µM
  TGI: 3.15 µM
SW-620 colon
  GI50: 1.48 µM
  TGI: 3.02 µM

## S=C1CC(c2ccc(Cl)cc2)Sc2ccccc2N1 (stereo unspecified)
786-0 renal
  TGI: > 100 µM
BT-549 breast
  TGI: > 100 µM
HL-60(TB) leukemia
  TGI: > 100 µM
MCF7 breast
  TGI: > 100 µM
MOLT-4 leukemia
  TGI: > 10 µM
NCI-H460 lung
  TGI: > 100 µM
NCI/ADR-RES ovarian
  TGI: > 100 µM
SF-295 CNS
  TGI: > 100 µM
SN12C renal
  TGI: > 100 µM

## O=C(c1ccco1)N(C(=S)N1CCN(c2ccccc2)CC1)c1ccccc1
786-0 renal
  TGI: > 100 µM
HL-60(TB) leukemia
  TGI: > 100 µM
MOLT-4 leukemia
  TGI: > 100 µM
NCI-H460 lung
  TGI: > 100 µM
SF-295 CNS
  TGI: > 100 µM
SN12C renal
  TGI: > 100 µM
SW-620 colon
  TGI: > 100 µM

## O=C1CC(O)c2c(Cl)sc(Cl)c21 (stereo unspecified)
786-0 renal
  TGI: 11.2 µM
BT-549 breast
  TGI: 29.7 µM
MCF7 breast
  TGI: 30.5 µM
MOLT-4 leukemia
  TGI: > 20.9 µM
NCI-H460 lung
  TGI: 52.3 µM
NCI/ADR-RES ovarian
  TGI: 59.2 µM
SF-295 CNS
  TGI: > 59.3 µM
SN12C renal
  TGI: > 48.6 µM
SW-620 colon
  TGI: 6.5 µM

## CO[P@]1(=O)O[C@@H](c2ccccc2)[C@H](O)[C@]1(O)c1ccccc1
786-0 renal
  TGI: > 100 µM
BT-549 breast
  TGI: > 100 µM
HL-60(TB) leukemia
  TGI: > 100 µM
MCF7 breast
  TGI: > 100 µM
NCI-H460 lung
  TGI: > 100 µM
NCI/ADR-RES ovarian
  TGI: > 100 µM
SF-295 CNS
  TGI: > 100 µM
SN12C renal
  TGI: > 100 µM
SW-620 colon
  TGI: > 100 µM

## CCCCNC(=S)Nc1nc(C(=O)NNS(=O)(=O)c2ccccc2)cs1
786-0 renal
  TGI: > 100 µM
BT-549 breast
  TGI: 70.8 µM
MCF7 breast
  TGI: > 100 µM
MOLT-4 leukemia
  TGI: > 100 µM
NCI/ADR-RES ovarian
  TGI: > 100 µM
SF-295 CNS
  TGI: > 100 µM
SN12C renal
  TGI: 62.5 µM

## CC1=C(C#N)S(=O)(=O)c2c(oc(C)c2C)N1
786-0 renal
  TGI: > 100 µM
BT-549 breast
  TGI: > 100 µM
MCF7 breast
  TGI: > 100 µM
MOLT-4 leukemia
  TGI: > 100 µM
NCI-H460 lung
  TGI: > 100 µM
NCI/ADR-RES ovarian
  TGI: > 100 µM
SF-295 CNS
  TGI: > 100 µM
SN12C renal
  TGI: > 100 µM
SW-620 colon
  TGI: > 100 µM

## O=c1[nH]cnc2c1ncn2[C@H]1CO[C@@H](CO)[C@@H]1O
786-0 renal
  TGI: > 100 µM
BT-549 breast
  TGI: > 100 µM
MCF7 breast
  TGI: > 100 µM
MOLT-4 leukemia
  TGI: > 100 µM
NCI-H460 lung
  TGI: > 100 µM
NCI/ADR-RES ovarian
  TGI: > 100 µM
SF-295 CNS
  TGI: > 100 µM
SN12C renal
  TGI: > 100 µM
SW-620 colon
  TGI: > 100 µM

## COc1ccc(-c2cn3ccnc3c(-c3ccc4ncn(C5CCCCC5)c4c3)n2)cc1
BT-549 breast
  GI50: 0.41 µM
  TGI: 3.91 µM
HL-60(TB) leukemia
  GI50: 1.06 µM
  TGI: 5.05 µM
MCF7 breast
  GI50: 0.64 µM
  TGI: > 100 µM
MOLT-4 leukemia
  GI50: 2.66 µM
  TGI: > 100 µM
NCI-H460 lung
  GI50: 0.622 µM
  TGI: > 100 µM
SN12C renal
  GI50: 2.11 µM
  TGI: > 100 µM
SW-620 colon
  GI50: 0.734 µM
  TGI: > 100 µM
